Experimental data from PMC3867817 (Molecular cell, 2013).

Target: RagB-RagC heterodimer (RagB monitored) (Homo sapiens, UniProt Q5VZM2)
Experiment: GDP dissociation assay
Format: binding
Conditions: GDP on wild-type RagB with Rag^X partner; not altered by FLCN-FNIP

Sequence of RagB-RagC heterodimer (RagB monitored) (Q5VZM2 whole entry): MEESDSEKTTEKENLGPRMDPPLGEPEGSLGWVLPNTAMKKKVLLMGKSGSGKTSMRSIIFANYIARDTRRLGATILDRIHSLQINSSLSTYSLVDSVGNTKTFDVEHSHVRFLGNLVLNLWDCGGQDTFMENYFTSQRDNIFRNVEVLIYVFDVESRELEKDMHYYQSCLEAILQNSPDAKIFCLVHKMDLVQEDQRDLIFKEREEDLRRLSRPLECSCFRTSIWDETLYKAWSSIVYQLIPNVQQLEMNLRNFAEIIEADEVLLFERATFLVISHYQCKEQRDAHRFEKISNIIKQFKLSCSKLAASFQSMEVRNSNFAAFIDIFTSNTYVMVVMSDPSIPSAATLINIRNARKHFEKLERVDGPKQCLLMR
Sequence of RagB-RagC heterodimer (RagB monitored) (Q9HB90 2-399 D181N partner): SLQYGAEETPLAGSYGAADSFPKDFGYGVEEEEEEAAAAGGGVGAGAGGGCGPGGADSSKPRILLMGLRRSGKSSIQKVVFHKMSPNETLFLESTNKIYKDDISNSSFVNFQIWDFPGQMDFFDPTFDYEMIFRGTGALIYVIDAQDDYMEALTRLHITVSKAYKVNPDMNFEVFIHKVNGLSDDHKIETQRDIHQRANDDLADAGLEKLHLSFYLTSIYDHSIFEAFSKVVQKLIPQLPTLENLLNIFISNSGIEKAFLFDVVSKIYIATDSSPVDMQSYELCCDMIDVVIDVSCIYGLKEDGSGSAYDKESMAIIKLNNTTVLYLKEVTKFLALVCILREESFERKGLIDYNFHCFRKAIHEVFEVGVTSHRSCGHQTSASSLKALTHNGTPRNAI

For `Nc1nc2c(ncn2[C@@H]2O[C@H](COP(=O)(O)OP(=O)(O)O)[C@@H](O)[C@H]2O)c(=O)[nH]1` [GDP], the GDP dissociation assay was “did not stimulate or inhibit the dissociation of GDP from RagB or RagC”.
